# Assay results as given in patent publication US11413278B2, “Compounds and methods for promoting stress resistance” (priority 2015, dated 2022).
# “Also recorded” adds a separate entry of the source. Like-named read-outs stand apart in the source and are kept apart here.
# Columns and labels:
# WI-38 cells = test: MMS resistance assay; type: cell-based, human; settings: for fold induction at 10 µM: Homo sapiens, 12 h, normalized ATP measurement; for Assay 3: MMS-resistant / Assay 5: Triple resistant: YES/NO; for Assay 3: MMS-resistant: * indicates partial; for Assay 5: Triple resistant: H2O2, cadmium and MMS; for Triple resistant: H2O2, CdCl2 and MMS
# Outline: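 Resistance to CdCl2 or MMS stress (12 h exposure) was scored in WI-38 fibroblasts pretreated with compound at 0.25–20 μM final, five doses, technical triplicates. MMS plates had compound added 24 h before MMS, after a shift to serum-free DMEM+2% BSA. Significance came from a global variance t-test over two independent runs.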
# in vitro = type: cell-based, human; settings: human
# [1] = tested on: HTB-178 lung tumor cells (EGFR+, PIK3CA+, RB1−, TP53−); test: Killing effects on HTB-178 tumor cells; type: cell-based, human
# SENP6 = molecular target: T1, SENP6 (Homo sapiens, UniProt Q9GZR1); settings: 2 screens; 10.0 μM or 12. μM; cited from earlier work
# T1 sequence (Q9GZR1 1-1112): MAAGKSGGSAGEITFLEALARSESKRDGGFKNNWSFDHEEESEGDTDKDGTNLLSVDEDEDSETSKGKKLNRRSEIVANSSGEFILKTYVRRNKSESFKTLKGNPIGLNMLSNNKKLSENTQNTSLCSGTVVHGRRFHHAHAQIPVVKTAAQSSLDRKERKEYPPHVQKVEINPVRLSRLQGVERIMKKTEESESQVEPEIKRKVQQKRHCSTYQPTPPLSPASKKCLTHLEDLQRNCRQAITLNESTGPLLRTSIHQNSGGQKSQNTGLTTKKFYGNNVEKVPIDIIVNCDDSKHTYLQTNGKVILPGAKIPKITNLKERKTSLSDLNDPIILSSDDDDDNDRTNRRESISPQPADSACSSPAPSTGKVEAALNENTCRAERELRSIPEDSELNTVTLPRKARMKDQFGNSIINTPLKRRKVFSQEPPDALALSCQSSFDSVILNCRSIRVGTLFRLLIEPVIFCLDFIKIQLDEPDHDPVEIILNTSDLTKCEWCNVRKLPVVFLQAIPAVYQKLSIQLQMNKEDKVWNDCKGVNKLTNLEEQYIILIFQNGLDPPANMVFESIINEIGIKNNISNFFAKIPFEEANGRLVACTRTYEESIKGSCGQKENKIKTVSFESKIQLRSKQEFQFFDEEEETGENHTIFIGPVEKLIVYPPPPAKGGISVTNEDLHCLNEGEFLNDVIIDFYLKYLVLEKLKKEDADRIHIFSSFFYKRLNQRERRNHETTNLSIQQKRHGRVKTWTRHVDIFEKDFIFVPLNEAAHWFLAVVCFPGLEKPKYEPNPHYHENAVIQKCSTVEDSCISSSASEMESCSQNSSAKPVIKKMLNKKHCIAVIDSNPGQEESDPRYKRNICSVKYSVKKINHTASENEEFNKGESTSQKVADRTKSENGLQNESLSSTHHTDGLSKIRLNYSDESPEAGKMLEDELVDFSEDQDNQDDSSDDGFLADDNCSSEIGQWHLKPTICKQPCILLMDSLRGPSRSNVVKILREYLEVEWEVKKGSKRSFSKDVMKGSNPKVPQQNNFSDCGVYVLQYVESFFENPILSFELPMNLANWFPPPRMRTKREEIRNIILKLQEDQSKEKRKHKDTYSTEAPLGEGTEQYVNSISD
# human protein targets = settings: PubChem database queries; cited from earlier work
# [2] = Exp. 1, WI-38 cells, read-out: Exp. 1, under MMS stress treatment, at 10 uM (fold change)
# [3] = Exp. 2, WI-38 cells, read-out: Exp. 2, under MMS stress treatment, at 10 uM (fold change)
# [4] = score in summary of 38 core set hits
SMILES,fold induction at 10 µM (WI-38 cells; [2]),fold induction at 10 µM (WI-38 cells; [3]),Assay 3: MMS-resistant (WI-38 cells),Assay 5: Triple resistant (WI-38 cells),B = MMS resistant (WI-38 cells; [4]),B = MMS resistant (WI-38 cells; summary score),D = Triple resistant (WI-38 cells; summary score),"cytotoxicity at 24 h, 10 uM (in vitro) [%]","Potential killing effects on HTB-178 tumor cells, 1st ([1]; Assay 1(y), at 10 uM)",SENP6 inhibition (SENP6) [%],Potential targets: human protein targets (confirmed) (human protein targets),"Assay 21: Potential killing effects on HTB-178 tumor cells ([1]; 10 uM, YES/NO)","Toxicity / viability of HTB-178 lung tumor cells ([1]; 10 μM, preliminary data)","Potential killing effects on HTB-178 tumor cells, 2nd ([1]; Assay 1(y), at 10 uM, 2nd)",MMS-resistant (WI-38 cells),"Multiplex resistance to cadmium, MMS and H2O2 (WI-38 cells; 0.25 μM to 20 μM, repurchased molecules)",Triple resistant (WI-38 cells),"MMS-resistant (WI-38 cells; WI-38 cells, 10 μM)","Triple resistant (WI-38 cells; WI-38 cells, 10 μM)"
NS(=O)(=O)c1ccc(NC(=O)c2ccc([N+](=O)[O-])o2)cc1 [Gr-1A],0.72,2.42,YES,YES,0,1,2,30,YES;,,,,,,,,,,
Cc1ccc(NC(=O)c2ccc([N+](=O)[O-])o2)cc1C [Gr-1F],0.74,2.07,YES,YES,0,1,2,50,,~80,"CASP3, CFTR, GMNN, IDH1, IL1B, JAK2, SENP6, SENP7, SENP8, STAT1, and TDP1",,,,,,,,
O=[N+]([O-])c1ccccc1S(=O)(=O)Nc1cccc2cccnc12 [Gr-3A],1,0.86,YES,YES,0,1,2,,,,"ADRBK1, APLNR, BARD1, BAZ2B, BRCA1, CCR6, DRD3, GMNN, IL1B,; also recorded: MDM2, MDM4, NFE2L2, NFKBIA, NOD1, NOD2, OPRK1, RBBP8, RELA,; also recorded: SIX1, SMAD3, TDP1",,,,,,,,
Cc1ccc(S(=O)(=O)Nc2cccc3cccnc23)cc1 [Gr-3B],1.72,1.33,,,0,0,0,,YES;,,"ADRB2, AGTR1, APLNR, ARNT, BARD1, BRCA1, CCR6, CFTR, CHRM4,; also recorded: CXCR6, DRD3, EPAS1, GOPC, HIF1A, HTT, IL1B, MAP1LC3A, MDM2,; also recorded: MDM4, MITF, NFE2L2, NOD1, NOD2, NOD2, RR2E3, OPRD1, OPRK1,; also recorded: OPRM1, PRNP, RIPK2, S1PR1, S1PR4, SIX1, SLC12A5, SMAD3, TACC3,; also recorded: TARDBP, TDP1, TLR9, TNF",,,,,,,,
Nc1ccccc1S(=O)(=O)Nc1cccc2cccnc12 [Gr-3C],1.06,0.84,,,0,0,0,,,,"GAPDH, NFKBIA, RELA",,,,,,,,
O=C(/C(=C/c1ccc(Cl)cc1)c1nc2ccccc2[nH]1)c1ccccc1 [Gr-4D],1.72,1.33,YES,YES,0,1,2,,YES;,,"ABHD5, ATXN2, BARD1, BRCA, CFTR, CHRM1, CHRM4, CYP2C9, CYP3A4,; also recorded: DRD3, EPAS1, GMNN, GPR183, HIF1A, HNF4A, HTT, IDH1, IL1B, MAPT,; also recorded: MDM2, MDM4, MITF, NFKB1, NOD1, NOD2, PLIN5, RELA, SMAD3, TDP1,; also recorded: TNF, TNFRSF10B, TUBB",,,,,,,,
O=C(NCc1cccnc1)/C(=C\c1cccc(Oc2ccccc2)c1)S(=O)(=O)c1ccccc1 [Gr-7A],0.96,2.21,,,0,0,0,84,YES;,,,YES,exerted more pronounced toxicity; also recorded: significantly reduce the viability,YES.,,,,,
O=C(NCc1cccnc1)/C(=C/c1ccc(-c2ccc(Cl)cc2)o1)S(=O)(=O)c1ccccc1 [Gr-7C],1.14,1.39,,,0,0,0,60,,,"ABHD5, ADRB2, ATXN2, BARD1, BRCA1, CFTR, CHRM4, CYP2C19,; also recorded: EPAS1, GMNN, GPR183, HIF1A, HNF4A, IDH1, IL1B, KCNJ1, MDM2,; also recorded: MDM4, MITF, NCOA1, NCOA2, NCOA3, NFE2L2, NOD1, NOD2, NOD2,; also recorded: NPBWR1, NPSR1, NPY1R, NPY2R, NR2E3, NR2F2, NR5A1, NR5A2, PLIN5,; also recorded: RIPK2, S1PR1, S1PR2, TDP1, TNF, VDR",,,,,,,,
CC1C(=O)C(C)C(c2cc(Cl)ccc2O)NC1c1cc(Cl)ccc1O (centres unmarked) [O6],0.81,0.79,,,0,0,0,,YES;,,"ADAM10, ADAM17, ATXN2, GLP1R, IDH1, IL1B, KCNE1, KCNQ1, NTSR1",,,,,,,,
O=C(c1ccc([N+](=O)[O-])o1)N1CCc2ccccc21 [O13],1.11,2.24,YES,YES,0,1,2,,YES;,~50,"CASP3, DRD2, GMNN, HCRTR1, NR5A1, NR5A2, SENP6, SENP8, SSP1, and TDP1",,,,,,,,
Oc1ncnc2sc3c(c12)CCC3 [O14],0.84,3.45,YES,YES,0,1,2,,,,TRHR,,,,,,,,
Cc1cc(C)c(C(=O)/C=C/c2ccccc2F)c(O)n1 [O18],1.11,1.48,YES,YES,0,1,2,,,,JAK2,,,,,,,,
CC(C)(C)c1ccc(OCC(=O)Nc2ccc3c4c(cccc24)C(=O)NC3=O)cc1 [O22],3.22,14.8,YES,YES,1,1,2,,,,"APOBEC3F, CFTR, NCOA3, OPRD1, OPRM1, PPARG, S1PR4, TDP1",,,,YES,reproducibly conferred multiplex resistance,YES,YES,YES
COc1cccc(/C=C2\CN(C)C/C(=C\c3cccc(OC)c3OC)C2=O)c1OC [O23],1.04,1.28,,,0,0,0,40,YES;,,,,,,,,,,
